Data on twelve compounds can be found in patent US5677329A, “Styryl-substituted monocyclic and bicyclic heteroaryl compounds which inhibit EGF receptor tyrosine kinase” (Rhone-Poulenc Rorer Pharmaceuticals, Inc., priority 1995, dated 1997).

The subject of assay [1] is EGF receptor. In words: ATP dependence of EGF-receptor autophosphorylation (10-s assay). The class given is biochemical. As to conditions: 15° C., read-out: Km for ATP in EGFR autophosphorylation. Here is the method: EGF-Receptor Purification
EGF-receptor purification is based on the procedure of Yarden and Schlessinger. A431 cells are grown in 80 cm^2 bottles to confluency (2×10^7 cells per bottle). The cells are washed twice with PBS and harvested with PBS containing 1.0 mmol EDTA (1 hour at 37° C.), and centrifuged at 600 g for 10 minutes. The cells are solubilized in 1 ml per 2×10^7 cells of cold solubilization buffer (50 mmol Hepes buffer, pH 7.6, 1% Triton X-100, 150 mmol NaCl, 5 mmol EGTA, 1 mmol PMSF, 50 μg/ml aprotinin, 25 mmol benzamidine, 5 μg/ml leupeptic, and 10 μg/ml soybean trypsin inhibitor) for 20 minutes at 4° C. After centrifugation at 100000 g for 30 minutes, the supernatant is loaded onto a WGA-agarose column (100 μl of packed resin per 2×10^7 cells) and shaken for 2 hours at 4° C. The unabsorbed material is removed and the resin washed twice with HTN buffer (50 mmol Hepes, pH 7.6, 0.1% Triton X-100, 150 mmol NaCl), twice with HTN buffer containing 1M NaCl, and twice with HTNG buffer (50 mmol Hepes, pH 7.6, 0.1% Triton X-100, 150 mmol NaCl, and 10% glycerol). The EGF receptor is eluted batchwise with HTNG buffer containing 0.5M N-acetyl-D-glucosamine (200 μl per 2×10^7 cells). The eluted material is stored in aliquots at -70° C. and diluted before use with TMTNG buffer (50 mmol Tris-Mes buffer, pH 7.6, 0.1% Triton X-100, 150 mmol NaCl, 10% glycerol).

Assay [2] addresses T1, EGFR (Homo sapiens, UniProt P00533).
T1 construct: endogenous in cells; host or cells: A431 cells (detergent lysate, anti-EGF-R Ab 108 immunoprecipitate)
Description: Inhibition of EGFR autophosphorylation (anti-EGF-R immunoprecipitate from A431 cells, EGF stimulation). As to conditions: for Relative inhibition of EGF receptor kinase, in words: comparison from Table V. The assay is classed as biochemical. How it is done: Inhibition of EGFR Autophosphorylation A431 cells were grown to confluence on human fibronectin coated tissue culture dishes. […] The reaction was stopped by adding hot electrophoresis sample buffer. […] "IC50," as used below, refers to the concentration of inhibitor (μM) at which the rate of autophosphorylation is halved, compared with media containing no inhibitor. […] The EGFR autophosphorylation inhibition was evaluated using the same procedure as described hereinbefore.

The subject of assay [3] is DNA synthesis in PDGF-stimulated cells. In words: Inhibition of cell proliferation as measured by inhibition of DNA synthesis ([3H]thymidine incorporation), PDGF-stimulated cells. The conditions noted are these: Table IV; PDGF stimulation; [3H]thymidine incorporation halved. The class given is cell-based. How it is done:
(§1) Inhibition of Cell Proliferation as Measured by Inhibition of DNA Synthesis Cells were seeded at 1×10^5 cells per well in 24-well Costar dishes pre-coated with human fibronectin (by incubating for 30 minutes at room temperature with 10 μg/0.5 ml/well). The cells were grown to confluence for 2 days. The medium was changed to DMEM containing […] for 36-48 hours and the cells were then incubated with PDGF, EGF (Toyobo, New York, N.Y.) (20 ng/ml) or serum (10% calf serum, FCS) and different concentrations of the inhibitory compounds. [^3 H]thymidine,(NEN, Boston, Mass.) was added 16-24 hours later at 0.5 μCi/ml for 2 hours. TCA precipitable material was quantitated by scintillation counting (C).
A general note: Incorporation of labelled thymidine or its analogues reports DNA synthesis.

Assay [4] has as its target PDGF receptor kinase. Description: Inhibition of autophosphorylation, procedure repeated with PDGF stimulation. The assay is classed as biochemical. As to conditions: Table III.
The test system of assay [5] is DNA synthesis in serum (FCS)-stimulated cells. In words: Inhibition of cell proliferation as measured by inhibition of DNA synthesis ([3H]thymidine incorporation), serum (10% FCS)-stimulated cells. The conditions noted are these: 10% calf serum (FCS); for IC50: Table IV, [3H]thymidine incorporation halved; for inhibition at 1 µM: read-out: Inhibition of [3H]thymidine incorporation, FCS (printed in the IC50 - FCS column). The assay is classed as cell-based. How it is done:
as §1

The subject of assay [6] is EGF receptor. The conditions noted are these: membranes of A431 cells; cited from earlier work.
Assay [7] concerns cyclic adenosine 3', 5'-monophosphate (cAMP)-dependent protein kinase. As to conditions: compared with EGF receptor autophosphorylation; cited from earlier work.
For assay [8], the system named is other protein kinases. As to conditions: cited from earlier work.
The mark [9] stands for this setting: Table V, comparison with prior art compound C-1, same procedure as before, read-out: IC50, inhibition of EGFR autophosphorylation (Table V).
Where [10] appears, read: Table III, EGF stimulation, autophosphorylation 2 min at 4° C., read-out: IC50 EGF.

What is called Km is the concentration of substrate that gives half-maximal velocity. As a reminder, the IC50 is the concentration that inhibits the measured activity by half.

Molecules are shown by their SMILES. Entries after “also recorded” stand apart in the source; their conditions may differ. Like-named read-outs stand apart in the source and are kept apart here. Where only a bound is given, the exact number is not on record here.

T1 sequence (P00533 25-1210): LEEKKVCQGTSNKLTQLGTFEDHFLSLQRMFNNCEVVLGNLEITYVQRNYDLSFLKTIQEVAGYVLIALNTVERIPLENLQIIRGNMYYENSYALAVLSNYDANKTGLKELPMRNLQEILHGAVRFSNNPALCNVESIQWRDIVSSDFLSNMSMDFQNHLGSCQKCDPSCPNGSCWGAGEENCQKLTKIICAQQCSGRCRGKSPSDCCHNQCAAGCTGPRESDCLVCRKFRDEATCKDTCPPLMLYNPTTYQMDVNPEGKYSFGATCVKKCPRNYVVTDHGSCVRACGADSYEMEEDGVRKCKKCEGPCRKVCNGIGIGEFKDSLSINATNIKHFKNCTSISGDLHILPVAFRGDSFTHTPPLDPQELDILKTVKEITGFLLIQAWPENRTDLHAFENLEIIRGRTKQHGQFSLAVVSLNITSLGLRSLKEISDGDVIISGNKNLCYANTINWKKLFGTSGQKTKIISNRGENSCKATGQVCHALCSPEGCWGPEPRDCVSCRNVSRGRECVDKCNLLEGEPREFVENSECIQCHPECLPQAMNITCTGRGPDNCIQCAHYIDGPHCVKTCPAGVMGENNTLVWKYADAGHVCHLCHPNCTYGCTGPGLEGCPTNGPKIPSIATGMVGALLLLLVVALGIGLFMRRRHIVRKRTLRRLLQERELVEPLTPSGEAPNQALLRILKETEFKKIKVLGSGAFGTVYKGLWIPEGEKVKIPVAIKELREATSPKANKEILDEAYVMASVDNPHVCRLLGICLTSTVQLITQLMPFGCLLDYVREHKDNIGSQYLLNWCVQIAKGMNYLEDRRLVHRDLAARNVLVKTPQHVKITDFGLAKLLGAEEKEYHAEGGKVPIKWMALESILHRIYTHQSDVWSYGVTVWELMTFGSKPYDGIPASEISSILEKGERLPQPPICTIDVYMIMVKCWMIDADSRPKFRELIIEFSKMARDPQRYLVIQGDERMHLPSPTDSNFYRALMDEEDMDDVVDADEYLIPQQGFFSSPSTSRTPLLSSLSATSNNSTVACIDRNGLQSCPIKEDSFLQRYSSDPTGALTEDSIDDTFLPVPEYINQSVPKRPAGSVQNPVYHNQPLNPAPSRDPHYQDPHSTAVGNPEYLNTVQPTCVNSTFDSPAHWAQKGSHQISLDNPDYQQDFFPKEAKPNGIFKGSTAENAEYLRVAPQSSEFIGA

Take `Nc1ncnc2c1ncn2[C@@H]1O[C@H](COP(=O)(O)OP(=O)(O)OP(=O)(O)O)[C@@H](O)[C@H]1O` [ATP, adenosine triphosphate]: in assay [1], the Km stood at 7.2 µM.
For the compound `N#C/C(=C\c1cc(Cl)cc(Cl)c1)c1cccnc1` [Example 1A, trans-2-(3-Pyridyl)-3-(3,5-dichlorophenyl)-2-propenenitrile], the IC50 in assay [2] (setting [9]) is 2000 nM. The figures for the “Relative inhibition of EGF receptor kinase, in words” value in assay [2] and in assay [2] (listed as 1-A) were “more potent inhibitor of EGF receptor kinase than C-1” and “much better activity than that of its corresponding N-oxide”, respectively.
In the case of `N#C/C(=C\c1cc(Cl)cc(Cl)c1)c1ccc[n+]([O-])c1` [Example 2, trans-2-(3-pyridyl)-3-(3,5-dichlorophenyl)-2-propenenitrile, N-oxide], the 50% inhibitory concentration (IC50) in assay [3] is 30 ± 17 nM; in assay [4] it was 20000 nM; in assay [2] (setting [10]) it was 100 nM; in assay [2] (setting [9]), no less than 50000 nM; in assay [5], 100 nM.
In the case of `COc1ccc(C=C(C#N)c2ccccn2)cc1OC` [Example 3, 2-(2-Pyridyl)-3-(3,4-dimethoxyphenyl)-2-propenenitrile], the IC50 in assay [3] turned out to be 14 ± 10 nM; in assay [4], 6000 nM; in assay [2] (setting [10]) it was 500 nM. Moreover, the inhibition at 1 µM in assay [5] worked out at 27 ± 5%.
Take `CC(C)(C)c1cc(C=C(C#N)c2ccccn2)cc(C(C)(C)C)c1` [Example 4, 2-(2-Pyridyl)-3-(3,5-di-tert-butylphenyl)-2-propenenitrile]: the IC50 in assay [3] was determined as 9 ± 2 nM; in assay [5], 500 nM.
For `COc1ccc(C=C(C#N)c2c[nH]c3ccccc23)cc1OC` [Example 5, 2-(3-Indolyl)-3-(3,4-dimethoxyphenyl)-2-propenenitrile], the values for the IC50 in assay [4] and in assay [2] (setting [10]) were 10000 nM and 400 nM, respectively.
Turning to `COc1ccc(C=C(C#N)c2cn(S(=O)(=O)c3ccc([N+](=O)[O-])cc3)c3ccccc23)cc1OC` [Example 6, 2-[1-(4-Nitrophenylsulfonyl)indol-3-yl]-3-(3,4-dimethoxyphenyl)-2-propenenitrile], the IC50 is 17 nM in assay [3], greater than 50000 nM in assay [4] and 20000 nM in assay [2] (setting [10]). The inhibition at 1 µM in assay [5] stood at 15%.
As to `COc1ccc(C=C(C#N)c2cccnc2)cc1OC` [Example 7, 2-(3-Pyridyl)-3-(3,4-dimethoxyphenyl)-2-propenenitrile], the figures for the IC50 in assay [4] and in assay [2] (setting [10]) were 30000 nM and 400 nM, respectively.
`N#CC(=Cc1ccc(Cl)cc1Cl)c1cccnc1` [Example C-1, 2-(3-pyridyl)-3-(2,4-dichlorophenyl)-2-propenenitrile, reference compound]: the IC50 in assay [2] (setting [9]) is no less than 50000 nM.
With `O=CN/C=C/c1cc(O)ccc1O` [erbstatin], the “Inhibition of EGF receptor autophosphorylation, in words” value in assay [6] is on record as “inhibits the autophosphorylation of the EGF receptor; also recorded: Low concentrations of erbstatin are required to inhibit EGF receptor autophosphorylation”. Besides, the “Concentrations required to inhibit cAMP-dependent protein kinase, in words” value in assay [7] is given as “much higher concentrations of erbstatin are required”.
In the case of `O=c1c(-c2ccc(O)cc2)coc2cc(O)cc(O)c12` [genistein], the “Competition with ATP; inhibition of other protein kinases, in words” value in assay [8] is on record as “compete with ATP, inhibit other protein kinases”.
Take `O=c1c(O)c(-c2ccc(O)c(O)c2)oc2cc(O)cc(O)c12` [quercetin]: the “Competition with ATP; inhibition of other protein kinases, in words” value in assay [8] is reported as “compete with ATP, inhibit other protein kinases”.
